Source: paper PMC2895411 (Journal of medicinal chemistry, 2010)
“Also recorded” adds a separate entry of the source.

Target: T1, human TLR7 (Homo sapiens, UniProt Q9NYK1)
T1 sequence (Q9NYK1 27-1049): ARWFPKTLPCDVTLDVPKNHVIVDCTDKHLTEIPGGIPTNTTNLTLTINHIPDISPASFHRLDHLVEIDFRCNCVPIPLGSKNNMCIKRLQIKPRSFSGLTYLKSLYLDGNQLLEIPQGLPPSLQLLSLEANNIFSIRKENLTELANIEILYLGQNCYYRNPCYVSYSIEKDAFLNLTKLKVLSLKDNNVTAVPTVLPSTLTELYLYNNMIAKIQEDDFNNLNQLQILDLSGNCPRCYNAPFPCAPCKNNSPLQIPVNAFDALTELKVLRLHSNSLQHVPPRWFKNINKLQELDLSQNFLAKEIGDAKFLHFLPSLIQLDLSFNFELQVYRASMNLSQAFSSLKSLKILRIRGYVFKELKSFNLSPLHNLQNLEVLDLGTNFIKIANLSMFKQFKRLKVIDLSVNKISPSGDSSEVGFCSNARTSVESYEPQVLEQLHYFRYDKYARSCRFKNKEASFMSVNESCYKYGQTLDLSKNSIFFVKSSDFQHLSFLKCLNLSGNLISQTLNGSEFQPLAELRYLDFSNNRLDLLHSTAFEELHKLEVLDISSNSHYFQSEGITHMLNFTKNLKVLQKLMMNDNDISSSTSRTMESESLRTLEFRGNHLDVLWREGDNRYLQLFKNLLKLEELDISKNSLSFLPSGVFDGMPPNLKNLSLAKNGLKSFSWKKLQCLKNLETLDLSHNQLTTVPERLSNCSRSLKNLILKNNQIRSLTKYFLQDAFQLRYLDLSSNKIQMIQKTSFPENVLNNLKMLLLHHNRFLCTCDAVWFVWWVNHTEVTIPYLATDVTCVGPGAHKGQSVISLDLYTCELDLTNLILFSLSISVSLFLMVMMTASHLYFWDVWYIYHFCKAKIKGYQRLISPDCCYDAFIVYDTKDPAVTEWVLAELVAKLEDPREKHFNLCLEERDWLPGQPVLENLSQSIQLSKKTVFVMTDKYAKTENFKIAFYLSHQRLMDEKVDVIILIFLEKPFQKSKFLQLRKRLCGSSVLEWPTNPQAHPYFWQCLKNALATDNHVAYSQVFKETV
Assay: NF-κB induction, human TLR7-specific reporter gene assay
Type: cell-based
Conditions: for TLR7-agonistic activity, result in words: human TLR7 reporter gene assay

SMILES | TLR7-agonistic activity, result in words | further results
CCCCCCCCCCCNCc1nc2c(N)nc3ccccc3c2n1CC(C)(C)O [Compound 22, 1-(4-Amino-2-((undecylamino)methyl)-1H-imidazo[4,5-c]quinolin-1-yl)-2-methylpropan-2-ol] | complete loss of activity; also recorded: completely inactive | 
C=CCCc1nc2c(N)nc3ccccc3c2n1Cc1ccccc1 [Compound 38, 1-Benzyl-2-(but-3-enyl)-1H-imidazo[4,5-c]quinolin-4-amine] | decrease in potency | 
Clc1nc2ccccc2c2c1nnn2Cc1ccccc1 [Compound 55, 1-Benzyl-4-chloro-1H-[1,2,3]triazolo[4,5-c]quinoline] | completely inactive | 
CCN(Cc1nc2c(N)nc3ccccc3c2n1CC(C)(C)O)C(C)=O [Compound 4, N-((4-Amino-1-(2-hydroxy-2-methylpropyl)-1H-imidazo[4,5-c]quinolin-2-yl)methyl)-N-ethylacetamide] | bereft of activity | 
CCCNC(=O)n1c(=O)n(Cc2ccccc2)c2c3ccccc3ncc21 [Compound 57, 1-Benzyl-2-oxo-N-propyl-1H-imidazo[4,5-c]quinoline-3(2H)-carboxamide] | completely inactive | 
CCCCCCCCCCCCCCCC(=O)N(CC)Cc1nc2c(N)nc3ccccc3c2n1CC(C)(C)O [Compound 5, N-((4-Amino-1-(2-hydroxy-2-methylpropyl)-1H-imidazo[4,5-c]quinolin-2-yl)methyl)-N-ethylpalmitamide] | bereft of activity | 
CCCCCc1nc2c(N)nc3ccccc3c2n1Cc1ccccc1 [Compound 32, 1-Benzyl-2-pentyl-1H-imidazo[4,5-c]quinolin-4-amine] |  | TLR7 activity relative to compound 2 (fold greater activity than 2): twenty-fold greater
CCN(CCCNC(=S)NCCCNCCCCNCCCN)Cc1nc2c(N)nc3ccccc3c2n1CC(C)(C)O [Compound 16, 1-(3-(((4-amino-1-(2-hydroxy-2-methylpropyl)-1H-imidazo[4,5-c]quinolin-2-yl)methyl)(ethyl)amino)propyl)-3-(3-(4-(3-aminopropylamino)butylamino)propyl) thiourea] | inactive | 
CCCCc1nc2c(NN)nc3ccccc3c2n1Cc1ccccc1 [Compound 49, 1-Benzyl-2-butyl-4-hydrazinyl-1H-imidazo[4,5-c]quinoline] | substantially weaker | 
CC/N=C(/NCCCN(C)C)N(CC)Cc1nc2c(N)nc3ccccc3c2n1CC(C)(C)O [Compound 6, 1-((4-Amino-1-(2-hydroxy-2-methylpropyl)-1H-imidazo[4,5-c]quinolin-2-yl)methyl)-3-(3-(dimethylamino)propyl)-1,2-diethylguanidine] | bereft of activity | 
Nc1nc2ccccc2c2c1nnn2Cc1ccccc1 [Compound 56, 1-Benzyl-1H-[1,2,3]triazolo[4,5-c]quinolin-4-amine] | completely inactive | 
CC(C)Cn1cnc2c(N)nc3ccccc3c21 [Compound 1, Imiquimod, reference compound] |  | EC50: ~2000 nM
CCN(CC)Cc1nc2c(N)nc3ccccc3c2n1CC(C)(C)O [Compound 3, 1-(4-Amino-2-((diethylamino)methyl)-1H-imidazo[4,5-c]quinolin-1-yl)-2-methylpropan-2-ol] | partial activity | 

Continued, in another order:

TLR7-agonistic activity, result in words | SMILES | further results
completely inactive | CCCCCc1nc2c(O)nc3ccccc3c2n1Cc1ccccc1 [Compound 46, 1-Benzyl-2-pentyl-1H-imidazo[4,5-c]quinolin-4-ol] | 
decrease in potency | C#CCCc1nc2c(N)nc3ccccc3c2n1Cc1ccccc1 [Compound 43, 1-Benzyl-2-(but-3-ynyl)-1H-imidazo[4,5-c]quinolin-4-amine] | 
completely inactive | CCCCCc1nc2c(Cl)nc3ccccc3c2n1Cc1ccccc1 [Compound 44, 1-Benzyl-4-chloro-2-pentyl-1H-imidazo[4,5-c]quinoline] | 
completely inactive | CCCCCc1nc2c(-c3ccccc3)nc3ccccc3c2n1Cc1ccccc1 [Compound 47, 1-Benzyl-2-pentyl-4-phenyl-1H-imidazo[4,5-c]quinoline] | 
completely inactive | CCN(CCOCCOCCN)Cc1nc2c(N)nc3ccccc3c2n1CC(C)(C)O [Compound 11, 1-(4-Amino-2-(((2-(2-(2-aminoethoxy)ethoxy)ethyl) (ethyl)amino)methyl)-1H-imidazo[4,5-c]quinolin-1-yl)-2-methylpropan-2-ol] | 
substantially weaker | CCCCc1nc2c(NO)nc3ccccc3c2n1Cc1ccccc1 [Compound 48, N-(1-Benzyl-2-butyl-1H-imidazo[4,5-c]quinolin-4-yl)hydroxylamine] | 
completely inactive | CCCCc1nc2cnc3ccccc3c2n1Cc1ccccc1 [Compound 50, 1-Benzyl-2-butyl-1H-imidazo[4,5-c]quinoline] | 
very active | CCNCc1nc2c(N)nc3ccccc3c2n1Cc1ccccc1 [Compound 52, 1-Benzyl-2-((ethylamino)methyl)-1H-imidazo[4,5-c]quinolin-4-amine] | 
